Among the data in a melting point compilation (Tetko et al.; mined from patent text by program, amines drawn as free bases though some values may be those of a salt) are melting point values, retold here.

The structures appear in SMILES notation. Bounds are passed on as bounds.

In the case of `COC(=O)C(CSSc1ccccc1C(=O)Nc1ccc(S(N)(=O)=O)cc1)NC(C)=O` (stereo unspecified), the melting point is 138 to 140 °C. The value for `Cc1nc(-c2cc(C(N)=O)c(=O)[nH]c2C)cs1` was more than 300 °C. Under `Cc1nc2cnccc2n1-c1ccc(C2=Nc3ccccc3N(C)C(=O)C2)cc1` stands 147 °C. `COC(=O)c1cccc(C=C2COc3ccc(OCc4ccccc4)cc3C2=O)c1` yielded a melting point of 109 to 112 °C. The value for `O=C(Nc1cc2ncc(CN3CCCC3)cc2cc1F)c1ccc(-c2ccc(Cl)cc2)cc1F` was 217 to 219 °C.

For the compound `CCOC(=O)C1(Cc2cccc(C)c2Br)CN(Cc2ccccc2)CCC1=O` (stereo unspecified), the melting point lay in the range of 60 to 61 °C.

The compound `COc1nnc(Cl)c(-c2c(F)cc(F)cc2F)c1-c1ccc(Br)cc1` yielded a melting point of 113 to 119 °C. The value for `CC(C)(C)OC(=O)NCc1cccc(Nc2ncnc3[nH]cc(C(=O)c4ccccc4)c23)c1` was 210 to 212 °C; that for `O=c1cccc(C(F)F)[nH]1` was 125 to 127 °C. As to `CCCC1=NN=C2C1=C1C=CC=CN1C(=O)C2C#N` (stereo unspecified), the melting point was in the range of 298 to 300 °C.

With `COC(=O)[C@H](CO)NC(=O)c1ncn2c1CN(C)C(=O)c1ccccc1-2`, the melting point lay in the range of 180 to 181 °C. The value for `CCOC(=O)Cc1c(C)nc(SCc2ccc(OC)cc2)n1C` was 158 to 160 °C; that for `CCC1C(=O)Nc2cc3[nH]c(-c4ccc(NC(C)=O)cc4OC)nc3cc21` (stereo unspecified) was 245 to 249 °C; that for `Cc1nc(-n2cnn(Cc3ccc(C(F)(F)F)o3)c2=O)sc1C(=O)NCc1cccnc1` was 124 to 125 °C.

The compound `C[C@@H](C(N)=O)c1ccc(NS(=O)(=O)c2ccccc2)cc1` came in with a melting point of 152 to 153 °C. The value for `Clc1cc2c(nn1)CCCCCCCCCC2` was 126 to 128 °C; that for `CCOCc1nc2c(N)nc3cccnc3c2n1CC(C)(C)NC(=O)NC(C)C` was 172 to 174 °C. `Cc1cc(=O)c(-c2ccccc2)c(-c2ccc(S(N)(=O)=O)cc2)o1` showed a melting point of 218 °C. Under `Cn1ncc2c(c1=O)SCCNC2Cc1ccc(Cl)cc1` (stereo unspecified) stands 106 to 109 °C; under `CCn1ncc2c(NCc3ccc(OC)cc3)c3ccccc3nc21`, 179 to 180 °C; under `O=C1CN(c2ccccc2)C(=O)N1C(=O)c1ccc(-c2ccccc2)cc1`, 196 to 198 °C. Under `O=C(c1ccc2nonc2c1)N1CC2CCC1C2` (stereo unspecified) stands 92 to 93 °C; under `CCCC1=C(C(=O)OC)C(c2ccccc2Cl)c2c[nH]nc2N1` (stereo unspecified), 203 to 207 °C. The value for `CC(C(=S)c1ccnc(NC=O)c1)S(C)=O` (stereo unspecified) was 123 to 125 °C. In turn, `Cc1cc(-c2cnn3c(C(F)(F)F)cc(-c4ccc(F)c(Cl)c4)nc23)ccn1` had a melting point of 292 °C. Under `CCC(=O)Nc1c(C#N)cnn1-c1nc(NCc2ccccc2)c(C(F)(F)F)cc1Cl` stands 139 to 142 °C; under `Oc1ccc2c(c1)CCCC(c1ccccc1)=C2c1ccc(OCCCCCI)cc1`, 192 to 193 °C.

The compound `O=C(O)c1cccc(-c2cccc(Oc3ccc(Cl)cc3Cl)n2)c1` showed a melting point of 244 to 245 °C. Under `Nc1ncc(-c2ccncn2)c(-c2ccco2)n1` stands 222 °C; under `O=C(Cc1cccc2ccccc12)Nc1cc(C2CC(NC(=O)C3CC3c3ccccc3)C2)[nH]n1` (stereo unspecified), 140 °C. The value for `CC(C)Oc1cc(-n2c(Cl)nc(C(F)(F)F)cc2=O)c(F)cc1Cl` was 88 to 90 °C.

Turning to `COc1ccc([N+](=O)[O-])cc1N1CCN(C(=O)OC(C)(C)C)CC1`, the melting point is 136 to 137 °C. The value for `CC(c1ccc2[nH]c(-c3cccnc3)nc2c1)n1ccnc1` (stereo unspecified) was 254 °C; that for `CC12CC=C3C(CCC4(CCSc5ncccn5)CC(O)CCC34C)C1CCC2O` (stereo unspecified) was 156 °C; that for `CNC(=S)C1(c2ccc(C)cn2)CCCS1` (stereo unspecified) was 134 °C. As to `Cc1ccc(S(=O)(=O)NCCc2cccc(OCCN)c2)cc1`, the melting point was 128 to 130 °C. Under `Nc1nc2c(Cc3cccnc3)c[nH]c2c(=O)[nH]1` stands more than 300 °C.

Take `O=C1NC(Cc2ccc([N+](=O)[O-])c(OCc3ccccc3)c2)C(=O)Nc2ccccc21` (stereo unspecified): the melting point was 243 to 245 °C. The value for `O=C(O)c1cc(Br)nc(Br)c1` was 179 to 187 °C. For `CN1CCNC1=NC(=S)Nc1ccccc1`, the melting point was in the range of 205 to 208 °C.

In turn, `CCc1c(-c2ccc(O)cc2)n(Cc2ccc(OCCN3CCCCC3)cc2)c2ccc(O)cc12` returned a melting point of 160 to 164 °C. The value for `CC(C#N)(Cn1nnc2cc(Cl)ccc21)NC(=O)c1ccc(OC(F)(F)F)cc1` (stereo unspecified) was 135 °C; that for `CCOC(=O)C(C(=O)COC(C)C)C1c2ccccc2C(=O)N1c1ccc2ccc(Cl)nc2n1` (stereo unspecified) was 205 °C; that for `CN1C(=S)Nc2ccncc2S1(=O)=O` was 195 to 198 °C.

With `CCCC(=O)NCCC1=CCc2ccc(OC)cc21`, the melting point was in the range of 64 to 67 °C. Under `CCCN(CCC)C1COc2cccc(C(=O)c3ccccc3F)c2C1` (stereo unspecified) stands 98.3 to 98.4 °C; under `O=C(Nc1ccccc1)Nc1ccccn1`, 186 to 188 °C; under `COc1ccc(-c2cccc(Cn3cncn3)c2)cc1Cl`, 78.2 to 78.4 °C. The compound `CCOC(=O)[C@H]1O[C@@H]1[C@H](Cc1ccccc1)NC(=O)OC(C)(C)C` showed a melting point of 55 to 61 °C. The compound `CCN(c1cc2c3c(c1)CCCC3CCC2)c1ncc(C(=O)O)cn1` gave a melting point of 252 to 253 °C. The value for `CCC(CC)NC(=O)Nc1cc(-c2c(-c3ccc(F)c(C)c3)nc3cccnn23)ccn1` was 187 to 188 °C; that for `CC#CCOc1ccc(S(=O)(=O)N(C)CCC(=O)O)cc1` was 90 to 110 °C; that for `C[C@H]1C(=O)C[C@@H]2C[C@H]1OO[C@]2(C)/C=C/C(=O)c1ccc(Cl)cc1` was 127 °C.

Turning to `CC(=O)NCCn1ccc2c1-c1ccc(Cl)cc1CC2`, the melting point lay within 144 to 145 °C. Compound `CC(C)NC(=O)C(O)C(Cc1ccccc1)NC(=O)OC(C)(C)C` (mixture of isomers) displayed a melting point of 126 to 145 °C.

Compound `CCS(=O)(=O)CCNc1c(S(C)=O)c(C#N)nn1-c1c(Cl)cc(C(F)(F)F)cc1Cl` (stereo unspecified) returned a melting point of 131 to 132 °C. Consider `CC(=O)Nc1ccc(OCC(O)CNC2CCc3ccccc3C2)cc1` (stereo unspecified), for which the melting point lay within 133 to 136 °C. Under `C#CCCOc1cc(/C=C/C(=O)Nc2ccccc2C(=O)O)ccc1OC` stands 197 to 198 °C; under `Cc1nccn1CCCNC(=O)c1cccc2oc(-c3ccccc3)nc12`, 145 to 148 °C.

On to `NCc1ccc(OCc2ccccc2)c(O)c1`, for which the melting point is 122 to 125 °C.

Take `CCOC(=O)c1cc(OC2COCCC2=O)[nH]n1` (stereo unspecified): the melting point lay in the range of 121 to 123 °C. The value for `CCSc1nc(N)ccc1[N+](=O)[O-]` was 132 °C. The value for `CC(=O)Oc1ccccc1CC1CNC(=O)O1` (stereo unspecified) was 98 to 99 °C; that for `COc1ccc2c(c1)c(C(=O)C(=O)NC1=CC(=O)OC1)cn2Cc1ccc(Cl)cc1` was 238 to 240 °C; that for `Cc1ccc(S(=O)(=O)N2CCCC(CS(=O)(=O)c3ccccc3)C2)cc1` (stereo unspecified) was 135 to 136 °C.

For the compound `CCn1c2c(c3ccc(OC)cc31)CN(C(=O)c1ccc(C)c3ccccc13)CC2`, the melting point lay within 209 to 210 °C.

On to `CCCCCCCc1cn2cc(-c3ccc(O)cc3)nc2s1`, for which the melting point was found to be 122 °C. The value for `COC1Nc2c(O)cccc2C(=O)N2CCCC12` (stereo unspecified) was 150 to 153 °C; that for `COc1ccc2c(c1)C(=O)C(=O)N2c1ccc(F)cc1` was 246 to 247 °C. Regarding `CC(=O)NC=Nc1ccc2nnc(-c3ncc([N+](=O)[O-])n3C)n2n1`, the melting point was 237 to 241 °C. Take `Nc1ccc(S(=O)(=O)Nc2cccc3c(Cl)c[nH]c23)cn1`: the melting point lay within 206 to 207 °C. The compound `FC(F)(F)c1ccc(-c2cc(Oc3ccc4cccnc4c3)ncn2)c(OCCN2CCOCC2)c1` yielded a melting point of 132 to 133 °C. Under `COc1ccc(-c2nc(CN(c3ccccc3)c3ccccc3)nc3cc(OC)c(OC)cc23)cc1OC` stands 215 to 216 °C. Under `CSc1ccc(-c2coc3ccc(C(=O)NN)cc23)cc1Cl` stands 207 to 208 °C; under `CCCC1=C(C#N)C(c2cccc(C#N)c2Br)c2c[nH]nc2N1C` (stereo unspecified), 218 to 220 °C; under `CCc1cccc(CC)c1NC(=O)C(Cc1ccccc1)NC(C)=O` (stereo unspecified), 205 to 206 °C. In turn, `O=C1CCCc2[nH]c(=O)ccc21` registered a melting point of 302 to 303 °C. Under `O=C(Nc1ccnc(Br)c1)C1(O)CCCC1` stands 153 °C.

`c1ccc(N(c2ccccc2)c2ccc3c4c(cccc24)CC3)cc1` showed a melting point of 168 to 170 °C. Under `CC1(C)C(NN)=Nc2ccccc2C1(O)c1ccccc1` (stereo unspecified) stands 195 to 196 °C. The value for `CC(=S)NC[C@H]1CN(c2ccc(N3CCC(=C(C)C#N)CC3)c(F)c2)C(=O)O1` was 171 to 172 °C. The compound `Cc1[nH]c2cc(C(=O)c3ccccc3)ccc2c1C=O` showed a melting point of 192 to 196 °C. The value for `C=CCS(=O)(=O)c1cccnc1S(N)(=O)=O` was 178 °C. The value for `CN(C)C(=O)c1nc2n(n1)-c1ccc(Cl)cc1C(c1ccccc1F)=NC2` was 180 to 182 °C; that for `c1ccc2c(c1)SCCc1c-2n(CCN2CCCCC2)c2ccccc12` was 118 °C. `O=c1oc2ccc(Cl)cc2c(O)c1CCCOc1ccccc1` gave a melting point of 162 to 163 °C.

On to `Cc1ccccc1CC(=O)c1cc(O)c(O)c([N+](=O)[O-])c1`, for which the melting point is 128 to 129 °C.

As to `Cc1sc(NC=O)c(C#N)c1Cl`, the melting point stood at 258 °C. Under `O=C(NN=C(Cc1ccccc1)c1ccccn1)OCc1ccccc1` stands 155 °C. The value for `Cc1cc2cnnc(Cl)c2n1Cc1ccccc1` was 152 to 156 °C. Under `CC(=S)NC[C@H]1CN(c2ccc(N3CCN(C(=O)CO)CC3)c(F)c2)C(=O)O1` stands 163 to 165 °C.

A word on the melting point: it is the temperature, or range, at which the solid turns liquid.
